{
  "source": "patent US6613534B2",
  "about": "“MAP-2 as a determinant of metastatic potential” (Wake Forest University Health Sciences, priority 2001, dated 2003)",
  "key": {"[1]": {"system": "MAP-2 mRNA in SK-MEL-19 melanoma cells", "assay": "Northern blot of total RNA for MAP-2 expression, cAMP and protein kinase C pathway agents (FIG. 8)", "assay_type": "cell-based, human"}, "[2]": {"system": "TYRP1 mRNA in SK-MEL-19 melanoma cells", "assay": "Northern blot of total RNA for TYRP1 expression (FIG. 8)", "assay_type": "cell-based, human"}, "[3]": {"system": "SK-MEL-19 human metastatic melanoma cell line", "assay": "Cell morphology of HMBA-treated melanoma cells (FIG. 3)", "assay_type": "cell-based", "details": "SK-MEL-19, 5 mM HMBA for 5 days"}, "[4]": {"system": "MAP-2 cDNA (approximately 450 bp fragment) in SK-MEL-19 melanoma cells", "assay": "Differential display RT-PCR of control and HMBA-treated cells", "assay_type": "cell-based, human", "details": "5 mM HMBA-treated vs control SK-MEL-19 cells", "experimental": "Differential display was used to characterize changes in gene expression associated with growth inhibition in melanoma cells. For differential display (DD), RT-PCR was performed using a GeneAmp System 2400 (Perkin-Elmer Corp., Foster City, Calif.). DD was performed using the DeltaTM Differential Display Kit (Clontech Laboratories Inc.). […] Diluted cDNA (1:12.5 and 1:50) was used to amplify DD-PCR product in the presence of [α-^33P]dATP (Dupont NEN, Boston, Mass.) using a random combination of arbitrary primers and oligo (dT) primers. PCR products were resolved by electrophoresis in a 5% polyacrylamide, 8 M urea sequencing gel. The gel was dried and exposed to Biomax MS film (Kodak, Rochester, N.Y.). Bands differentially expressed between untreated and treated samples were cut, eluted, re-amplified, sequenced by the ABI 377 DNA Sequencer (Perkin-Elmer Corp., Foster City, Calif.). Differential display analysis was performed using RNA obtained from control and HMBA-treated SK-MEL-19 melanoma cells. Primer […] NO: 4) and oligo dT primer […] U32996; nucleotides 1931-2384). […] Cell Biol., 106:779-783 (1988))."}, "[5]": {"system": "cultured human metastatic melanoma cells", "details": "cited from earlier work"}, "[6]": {"system": "TYRP1 in cultured human metastatic melanoma cells", "details": "cited from earlier work"}, "[7]": {"system": "mouse erythroleukemia cells (MEL) and a variety of human tumor cells", "details": "cited from earlier work"}, "[8]": {"details": "SK-MEL-19, 5 mM HMBA, 2.5 nM CT, 10 ng/ml TPA or combinations, 6, 24 and 48 h"}},
  "note": "“Also recorded” adds a separate entry of the source. Where two headings read alike, the source gives them in different places.",
  "data": [
    {"compound": "cholera toxin [CT]", "values": [
      {"measurement": "MAP-2 expression (MAP-2c mRNA)", "setting": "[1]", "value": "did not induce MAP-2 expression; also recorded: does not change MAP-2 expression"},
      {"measurement": "TYRP1 mRNA expression", "setting": "[2]", "value": "did not cause down-regulation of TYRP1 mRNA"}
    ]},
    {"compound": "CC(=O)NCCCCCCNC(C)=O", "note": "[HMBA, hexamethylene bisacetamide]", "values": [
      {"measurement": "MAP-2 expression (MAP-2c mRNA)", "setting": "[1]; [8]", "value": "up-regulation of MAP-2 expression was detected"},
      {"measurement": "TYRP1 mRNA expression", "setting": "[2]; [8]", "value": "extinction of TYRP1 expression"},
      {"measurement": "cell morphology", "setting": "[3]", "value": "induction of dendritic morphology; also recorded: formation of dendrite-like structures"},
      {"measurement": "expression of ~450 bp MAP-2 cDNA by differential display", "setting": "[4]", "value": "over expressed in treated cells; also recorded: generates an approximately 450 bp cDNA"},
      {"measurement": "cell growth", "setting": "[5]", "value": "inhibits growth"},
      {"measurement": "TYRP1 expression", "setting": "[6]", "value": "selective down-regulation"},
      {"measurement": "cell cycle distribution", "setting": "[7]", "value": "accumulation of cells in G0/G1 phase with a significant decrease in population of cells in G2/M phase"},
      {"measurement": "terminal differentiation", "setting": "[7]; mouse erythroleukemia cells (MEL) and a variety of human tumor cells", "value": "induce terminal differentiation"}
    ]},
    {"compound": "CCCCCCCCCCCCCC(=O)O[C@@H]1[C@@H](C)[C@@]2(O)[C@@H](C=C(CO)C[C@]3(O)C(=O)C(C)=C[C@@H]23)[C@@H]2C(C)(C)[C@]12OC(C)=O", "note": "[TPA, 12-O-tetradecanoyl phorbol-13-acetate]", "values": [
      {"measurement": "MAP-2 expression (MAP-2c mRNA)", "setting": "[1]", "value": "did not induce MAP-2 expression; also recorded: does not change MAP-2 expression"},
      {"measurement": "TYRP1 mRNA expression", "setting": "[2]", "value": "did not cause down-regulation of TYRP1 mRNA"}
    ]}
  ]
}
